Measurements published in ChEMBL document CHEMBL3525916, “Investigation of figopitant and its metabolites in rat tissue by combining whole-body autoradiography with liquid extraction surface analysis mass spectrometry” (Drug Metab Dispos, 2012).

Tested on: Rattus norvegicus
Assay: Retention time in albino Wistar Hannover rat treated with 5 mg/kg, iv of [14C]figopitant
Assay type: ADME, organism-based
Set-up: dose 5 mg/kg, route intravenous
Details: in vivo

Retention_time [min] | Compound
24.2 | CN(CC(O)c1cc(C(F)(F)F)cc(C(F)(F)F)c1)C(=O)[C@H](c1ccccc1)N1CCN(CC2CC2)CC1 (stereo partly drawn)
14.5 | CN(CCc1cc(C(F)(F)F)cc(C(F)(F)F)c1)C(=O)[C@H](c1ccccc1)N1CCNCC1
11.9 | CN(CCc1cc(C(F)(F)F)cc(C(F)(F)F)c1)C(=O)[C@@H](NCCN)c1ccccc1
